PMC9412555, “Benzothiazole Derivatives Endowed with Antiproliferative Activity in Paraganglioma and Pancreatic Cancer Cells: Structure–Activity Relationship Studies and Target Prediction Analysis” (Pharmaceuticals, 2022)

Key:
PTJ64i = assay: MTT cell viability assay, PTJ64i; type: cell-based; conditions: for Selectivity Index (SI): IC50 in normal (HFF-1) fibroblast cells/IC50 in PTJ64i; for IC50: PTJ64i paraganglioma, MTT, 72 h
Description: (§1) Compounds 4a–p were submitted to a preliminary MTT assay at a one-point screening concentration of 75 μM for 72 h, including 2b as a reference compound (Figure 3). […] The presence of the electron-donating methoxy group decreased the activity of 2b, in both the para and meta positions. […] Specifically, these compounds, namely 4d, 4e, 4f, 4h, 4i, 4j, 4k, 4l, and 4m, were tested at concentrations of 3, 6, 12 and 24 µM for 72 h. In addition, the nine compounds, together with 2b, were tested against human fibroblasts HFF-1, in order to evaluate their selectivity against tumor cells, as compared to normal cells. Effects on cancer or normal cell viability were extrapolated from concentration–response curves and are expressed as IC50 values in Table 2.
(§2) Pancreatic cancer (AsPC-1, BxPC-3, and Capan-2), paraganglioma (PTJ86i and PTJ64i) and normal fibroblast (HFF-1) cell lines were cultured as previously described. All compounds were dissolved in DMSO (stock solutions) and then diluted in culture media to the final working concentrations. In this way, the solutions were completely clear and devoid of any undissolved material by microscopic inspection. […] The effects of compounds 4a-p and 2b on cancer cell viability were tested by an MTT assay (Sigma-Aldrich, St. Louis, MO, USA), as described by Florio et al.. In the initial screening all compounds were tested at a one-point screening concentration of 75 μM for 72 h (five replica wells per each condition). […] For combined treatments, the experimental design was made according to the Chou–Talalay method for drug combination studies, as previously described.
(§3) IC50 values were extrapolated from concentration–response curves and calculated using the CompuSyn software. […] Based on this analysis, a CI < 1 indicates synergism, a CI = 1 indicates additive effects and a CI > 1 indicates antagonism. SI values were calculated as previously described. Comparisons of mean values were performed using an unpaired Student’s t-test. For multiple comparisons, a one-way ANOVA followed by Dunnett’s test were employed. A p-value < 0.05 was estimated as statistically significant.

Capan-2 = assay: MTT cell viability assay, Capan-2; type: cell-based; conditions: for IC50: Capan-2 pancreatic cancer, MTT; for IC50 / Inhibition Rate of Cell Viability: 72 h; for Selectivity Index (SI): IC50 in normal (HFF-1) fibroblast cells/IC50 in Capan-2
Description: as §1, §2, §3

AsPC-1 = assay: MTT cell viability assay, AsPC-1; type: cell-based; conditions: for IC50: AsPC-1 pancreatic cancer, MTT; for IC50 / Inhibition Rate of Cell Viability: 72 h; for Selectivity Index (SI): IC50 in normal (HFF-1) fibroblast cells/IC50 in AsPC-1
Description: as §1, §2, §3

BxPC-3 = assay: MTT cell viability assay, BxPC-3; type: cell-based; conditions: for IC50: BxPC-3 pancreatic cancer, MTT; for IC50 / Inhibition Rate of Cell Viability: 72 h; for Selectivity Index (SI): IC50 in normal (HFF-1) fibroblast cells/IC50 in BxPC-3
Description: as §1, §2, §3

[1] = system: pancreatic (AsPC-1, BxPC-3, and Capan-2) and paraganglioma (PTJ64i and PTJ86i) cancer cell lines; assay: One-point MTT screening at 75 µM in cancer cell lines; type: cell-based; conditions: one-point screening concentration of 75 μM for 72 h, five cancer cell lines
Description: as §1, §2
Figure 3 Screening of the effects of novel derivatives (4a–p) on the viability of pancreatic (AsPC-1, BxPC-3, and Capan-2) and paraganglioma (PTJ64i and PTJ86i) cancer cell lines. The lead compound 2b was included as a reference and the histograms show the relative decrease of cancer cell viability observed after treatments, as compared to 2b. Cell viability was assessed by an MTT assay using compounds at 75 µM for 72 h. Data shown are the means ± SD of duplicate experiments with quintuplicate determinations and are calculated as ratios relative to the reference compound 2b (dashed line).

PTJ86i = assay: MTT cell viability assay, PTJ86i; type: cell-based; conditions: for Selectivity Index (SI): IC50 in normal (HFF-1) fibroblast cells/IC50 in PTJ86i; for IC50: PTJ86i paraganglioma, MTT, 72 h
Description: as §1, §2, §3

HFF-1 = assay: MTT cell viability assay, normal fibroblasts HFF-1; type: cell-based, human; conditions: 72 h; for IC50: HFF-1 normal cells, MTT
Description: All compounds were dissolved in DMSO (stock solutions) and then diluted in culture media to the final working concentrations. […] The effects of compounds 4a-p and 2b on cancer cell viability were tested by an MTT assay (Sigma-Aldrich, St. Louis, MO, USA), as described by Florio et al. [17]. In the initial screening all compounds were tested at a one-point screening concentration of 75 μM for 72 h (five replica wells per each condition).
IC50 values were extrapolated from concentration–response curves and calculated using the CompuSyn software [45]. […] SI values were calculated as previously described [46]. Comparisons of mean values were performed using an unpaired Student’s t-test. For multiple comparisons, a one-way ANOVA followed by Dunnett’s test were employed. A p-value < 0.05 was estimated as statistically significant.

For `COc1ccc(NC(=O)C(Sc2nc3cc(Cl)ccc3s2)c2ccccc2)cc1` (centres unmarked) [4a, 2-[(5-Chlorobenzo[d]thiazol-2-yl)thio]-N-(4-methoxyphenyl)-2-phenylacetamide], the melting point was 190 °C (dec.).

`O=C(Nc1ccc(Cl)cc1)C(Sc1nc2cc(Cl)ccc2s1)c1ccccc1` (centres unmarked) [4b, 2-[(5-Chlorobenzo[d]thiazol-2-yl)thio]-N-(4-chlorophenyl)-2-phenylacetamide] showed a melting point of 178 to 180 °C.

In the case of `O=C(Nc1ccc(C(F)(F)F)cc1)C(Sc1nc2cc(Cl)ccc2s1)c1ccccc1` (centres unmarked) [4d, 2-[(5-Chlorobenzo[d]thiazol-2-yl)thio]-2-phenyl-N-[4-(trifluoromethyl)phenyl] Acetamide], the “Selectivity Index (SI)” value (PTJ64i) is reported as 1.36, the IC50 (PTJ64i) is reported as 6.79 µM and the IC50 (Capan-2) is reported as 8.97 µM. For the same molecule, the “Selectivity Index (SI)” value (Capan-2) was 1.03, the IC50 (AsPC-1) was 7.66 µM and the “Selectivity Index (SI)” value (AsPC-1) was 1.20. The IC50 (BxPC-3) was 3.99 µM, the “Selectivity Index (SI)” value (BxPC-3) was 2.31 and the “effect on cancer cell viability, potency compared with 2b” value (from here on “effect … compared with 2b”) [1] was “greater antiproliferative activity than 2b”. The “Selectivity Index (SI)” value (PTJ86i) was 0.74, the IC50 (PTJ86i) was 12.4 µM and the IC50 (HFF-1) was 9.23 µM.

In the case of `COc1cccc(NC(=O)C(Sc2nc3cc(Cl)ccc3s2)c2ccccc2)c1` (centres unmarked) [4g, 2-[(5-Chlorobenzo[d]thiazol-2-yl)thio]-N-(3-methoxyphenyl)-2-phenylacetamide], the melting point is reported as 160 to 162 °C and the “effect … compared with 2b” value [1] is reported as “exception”.

With `O=C(Nc1cccc(Cl)c1)C(Sc1nc2cc(Cl)ccc2s1)c1ccccc1` (centres unmarked) [4h, 2-[(5-Chlorobenzo[d]thiazol-2-yl)thio]-N-(3-chlorophenyl)-2-phenylacetamide] the IC50 (PTJ64i) was 7.27 µM, the IC50 (Capan-2; Homo sapiens) was 17.7 µM and the IC50 (AsPC-1; Homo sapiens, ASPC1) was 12.2 µM. The IC50 (BxPC-3; Homo sapiens) was 12 µM, the “effect … compared with 2b” value [1] was “greater antiproliferative activity than 2b” and the IC50 (PTJ86i) was 16.6 µM. It also gave an IC50 (HFF-1; Homo sapiens) of 11.6 µM.

For `O=C(Nc1cccc(C(F)(F)F)c1)C(Sc1nc2cc(Cl)ccc2s1)c1ccccc1` (centres unmarked) [4j, 2-[(5-Chlorobenzo[d]thiazol-2-yl)thio]-2-phenyl-N-[3-(trifluoromethyl)phenyl]acetamide], the IC50 (PTJ64i) was 11.2 µM, the IC50 (Capan-2; Homo sapiens) was 24.2 µM and the IC50 (AsPC-1; Homo sapiens, ASPC1) was 9.53 µM. For the same molecule, the IC50 (BxPC-3; Homo sapiens) was 14 µM, the “effect … compared with 2b” value [1] was “greater antiproliferative activity than 2b” and the IC50 (PTJ86i) was 17.5 µM. For the same molecule, the IC50 (HFF-1; Homo sapiens) was 18.1 µM.

With `CC(=O)Nc1cccc(NC(=O)C(Sc2nc3cc(Cl)ccc3s2)c2ccccc2)c1` (centres unmarked) [4l, N-(3-Acetamidophenyl)-2-[(5-chlorobenzo[d]thiazol-2-yl)thio]-2-phenylacetamide] the “Selectivity Index (SI)” value (PTJ64i) was 6.62, the IC50 (PTJ64i) was 10.1 µM and the “Inhibition Rate of Cell Viability” value (Capan-2; Capan-2, 4l 0.5 µM) was 9.34%. The “Inhibition Rate of Cell Viability” value (Capan-2; Capan-2, 4l 5 µM) was 30.25%, the “Inhibition Rate of Cell Viability” value (Capan-2; Capan-2, 4l 50 µM) was 43.30% and the IC50 (Capan-2; Homo sapiens) was 33.8 µM. For the same molecule, the “Selectivity Index (SI)” value (Capan-2) was 1.99, the “Inhibition Rate of Cell Viability” value (AsPC-1; AsPC-1, 4l 0.5 µM) was 13.40% and the “Inhibition Rate of Cell Viability” value (AsPC-1; AsPC-1, 4l 5 µM) was 18.87%. The “Inhibition Rate of Cell Viability” value (AsPC-1; AsPC-1, 4l 50 µM) was 42.97%, the IC50 (AsPC-1; Homo sapiens, ASPC1) was 14.8 µM and the “Selectivity Index (SI)” value (AsPC-1) was 4.54. The “Inhibition Rate of Cell Viability” value (BxPC-3; BxPC-3, 4l 0.5 µM) was 6.00%, the “Inhibition Rate of Cell Viability” value (BxPC-3; BxPC-3, 4l 5 µM) was 9.54% and the “Inhibition Rate of Cell Viability” value (BxPC-3; BxPC-3, 4l 50 µM) was 70.50%. For the same molecule, the IC50 (BxPC-3; Homo sapiens) was 13.7 µM, the “Selectivity Index (SI)” value (BxPC-3) was 4.91 and the “effect … compared with 2b” value [1] was “greater antiproliferative activity than 2b”. The “Selectivity Index (SI)” value (PTJ86i) was 3.37, the IC50 (PTJ86i) was 19.9 µM and the “Inhibition Rate of Cell Viability” value (HFF-1; HFF-1, 4l 0.5 µM) was 0.00%. For the same molecule, the “Inhibition Rate of Cell Viability” value (HFF-1; HFF-1, 4l 5 µM) was 1.00%, the “Inhibition Rate of Cell Viability” value (HFF-1; HFF-1, 4l 50 µM) was 17.69% and the IC50 (HFF-1; Homo sapiens) was 67.1 µM.

In the case of `O=C(Nc1ccc(Cl)c(Cl)c1)C(Sc1nc2cc(Cl)ccc2s1)c1ccccc1` (centres unmarked) [4m, 2-[(5-Chlorobenzo[d]thiazol-2-yl)thio]-N-(3,4-dichlorophenyl)-2-phenyl Acetamide], the “Selectivity Index (SI)” value (PTJ64i) is reported as 1.32, the IC50 (PTJ64i) is reported as 7.84 µM and the IC50 (Capan-2) is reported as 13.3 µM. The “Selectivity Index (SI)” value (Capan-2) was 0.77, the IC50 (AsPC-1) was 8.49 µM and the “Selectivity Index (SI)” value (AsPC-1) was 1.22. The IC50 (BxPC-3) was 9.81 µM, the “Selectivity Index (SI)” value (BxPC-3) was 1.05 and the “effect … compared with 2b” value [1] was “greater antiproliferative activity than 2b”. The “Selectivity Index (SI)” value (PTJ86i) was 0.52, the IC50 (PTJ86i) was 19.9 µM and the IC50 (HFF-1) was 10.3 µM.

With `O=C(Nc1cc([N+](=O)[O-])ccc1Br)C(Sc1nc2cc(Cl)ccc2s1)c1ccccc1` (centres unmarked) [4n, N-(2-Bromo-5-nitrophenyl)-2-[(5-chlorobenzo[d]thiazol-2-yl)thio]-2-phenyl Acetamide] the “effect … compared with 2b” value [1] was “exception”.

For `O=C(Nc1ccc(C(F)(F)F)cc1Br)C(Sc1nc2cc(Cl)ccc2s1)c1ccccc1` (centres unmarked) [4o, N-[2-Bromo-4-(trifluoromethyl)phenyl]-2-[(5-chlorobenzo[d]thiazol-2-yl)thio]-2-phenylacetamide], the melting point was 179 to 180 °C and the “effect … compared with 2b” value [1] was “exception”.

For `O=C(Nc1cc(C(F)(F)F)ccc1Br)C(Sc1nc2cc(Cl)ccc2s1)c1ccccc1` (centres unmarked) [4p, N-[2-Bromo-5-(trifluoromethyl)phenyl]-2-[(5-chlorobenzo[d]thiazol-2-yl)thio]-2-phenylacetamide], the melting point was 157 to 159 °C and the “effect … compared with 2b” value [1] was “exception”.

For `Nc1ccn([C@@H]2O[C@H](CO)[C@@H](O)C2(F)F)c(=O)n1` [GEM, gemcitabine, reference compound], the “Inhibition Rate of Cell Viability” value (Capan-2; Capan-2, GEM 0.1 µM) was 26.87%, the “Inhibition Rate of Cell Viability” value (Capan-2; Capan-2, GEM 1 µM) was 27.22% and the “Inhibition Rate of Cell Viability” value (Capan-2; Capan-2, GEM 10 µM) was 38.65%. The “Inhibition Rate of Cell Viability” value (AsPC-1; AsPC-1, GEM 0.1 µM) was 54.21%, the “Inhibition Rate of Cell Viability” value (AsPC-1; AsPC-1, GEM 1 µM) was 63.25% and the “Inhibition Rate of Cell Viability” value (AsPC-1; AsPC-1, GEM 10 µM) was 64.63%. For the same molecule, the “Inhibition Rate of Cell Viability” value (BxPC-3; BxPC-3, GEM 0.1 µM) was 65.02%, the “Inhibition Rate of Cell Viability” value (BxPC-3; BxPC-3, GEM 1 µM) was 64.65% and the “Inhibition Rate of Cell Viability” value (BxPC-3; BxPC-3, GEM 10 µM) was 62.50%.
